Where a name gives a salt, the structure may show the parent alone.
How the values were obtained:
[1] = tested on: human lymphoid B-cell culture; test: Cell labeling with fluorinated fluorescein diacetates, flow cytometry; type: cell-based; settings: 1 μM, 37° C., 30 minutes, washed, fixed; compared with FDA after two hours (FIG. 5)
Experimental: Cells from a human lymphoid B-cell culture in RPMI 1640 medium are treated with 1 μM Compound 25 (4,5,6,7-TFFDA), Compound 26 (2',4,5,6,7,7'-HFFDA), or fluorescein diacetate (FDA) at 37° C. for 30 minutes. Following centrifugation and washing in PBS, the pellets are resuspended in RPMI 1640 medium for 15 min, recentrifuged and washed in PBS, fixed with 3.7% formaldehyde in PBS and analyzed by flow cytometry using 488 nm excitation. […] Alternatively, the stained and washed cells are viewed or analyzed without fixation.

[2] = tested on: ATP-dependent dye efflux mechanisms in lymphoid-B cell lines; test: Dye efflux from labeled cells with and without verapamil or probenecid, flow cytometry; type: cell-based
Experimental: Identical batches of lymphoid-B cell lines cells are separately incubated with […] solutions of 4,5,6,7-tetrafluorofluorescein diacetate (Compound 25), 2',7'-dichloro4,5,6,7-tetrafluorofluorescein diacetate (Compound 28), 2',4,5,6,7,7'-hexafluorofluorescein diacetate ([…]) and 2',4',5',7'-tetrafluorofluorescein diacetate. To one set of each cells is added 100 μM verapamil and to another 1 mM probenecid, both of which are known to block ATP-dependent dye efflux mechanisms, as found in multidrug resistant of cells. Without washing, the cells are analyzed for brightness by flow cytometry using 488-nm excitation.

[3] = target: Escherichia coli β-galactosidase (Escherichia coli, UniProt P00722); test: Labeling β-galactosidase with a fluorinated fluorescein diacetate; settings: 3 mg enzyme in PBS pH 7.5, 13.6 μL of 1 mg/mL dye, 1 hour; estimated with ε=85,600 cm^-1 M^-1 at 515 nm
Experimental: Escherichia coli β-galactosidase (3 mg) in 150 μL phosphate-buffered saline pH 7.5 is treated with 13.6 μL of a 1 mg/mL stock solution of 4,5,6,7-tetrafluorofluorescein diacetate (Compound 25) in DMSO. After 1 hour the pH is raised to 10 with Na2 CO3 for 2 hours to remove the acetates. Unreacted dye is removed on a spin column. The degree of substitution is estimated at 8.6 using κ=85,600 cm^-1 M^-1 at 515 nm.

[4] = Photodecomposition on illumination in fluorometer; type: physicochemical; settings: % of decreased fluorescence intensity after 33 minutes of illumination in fluorometer at wavelength of maximum excitation
Experimental: *% of decreased fluorescence intensity after 33 minutes of illumination in
fluorometer at wavelength of maximum excitation

[5] = pH titration of fluorophores (pKa); settings: Table 1
Experimental: The dye of interest is first dissolved in a series of buffers that have each been calibrated using a pH meter. Acetate buffers are typically used in the range of pH 46, and phosphate buffers in the pH range 68. Absorption measurements are made using solutions that are approximately 10 1M in concentration, and fluorescence measurements are made using solutions that are approximately 1 μM in concentration. The absorption or emission data is then plotted versus pH to determine pKa values.

[6] = Spectral properties of selected fluorinated fluoresceins and rhodols; type: physicochemical
[7] = target: T1, Endogenous (Lysosomal) β-galactosidase in NIH 3T3 cells (Mus musculus, UniProt P23780); test: Detection of endogenous (lysosomal) β-galactosidase activity in intact cells by flow cytometry; type: cell-based; settings: 1 μM, 37° C., 30 minutes; for Fluorescence Emission: normalized to FDG, Table 4
T1 construct: Endogenous (Lysosomal) β-galactosidase Activity in Intact Cells; endogenous in cells; host or cells: NIH 3T3
T1 sequence (P23780 30-647): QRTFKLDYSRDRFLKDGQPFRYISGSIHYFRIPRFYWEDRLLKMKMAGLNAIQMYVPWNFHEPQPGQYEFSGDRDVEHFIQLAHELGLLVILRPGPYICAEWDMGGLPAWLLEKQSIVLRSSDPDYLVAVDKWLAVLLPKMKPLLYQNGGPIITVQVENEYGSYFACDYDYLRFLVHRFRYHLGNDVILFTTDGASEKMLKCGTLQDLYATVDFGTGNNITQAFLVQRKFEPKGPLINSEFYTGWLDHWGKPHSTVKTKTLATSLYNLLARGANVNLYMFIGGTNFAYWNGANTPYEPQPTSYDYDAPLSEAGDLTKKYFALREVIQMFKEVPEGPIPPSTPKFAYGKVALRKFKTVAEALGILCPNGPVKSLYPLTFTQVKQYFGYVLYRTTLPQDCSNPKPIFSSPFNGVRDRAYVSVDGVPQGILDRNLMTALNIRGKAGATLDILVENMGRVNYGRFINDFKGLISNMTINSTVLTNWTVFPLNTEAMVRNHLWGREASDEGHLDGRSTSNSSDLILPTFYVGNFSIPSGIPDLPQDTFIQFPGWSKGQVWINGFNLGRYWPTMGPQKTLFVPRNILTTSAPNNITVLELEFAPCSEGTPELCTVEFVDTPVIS
Experimental: NIH 3T3 cells that are not transfected with exogenous β-galactosidase were cultured in Dulbecco's Modified Minimal Essential Medium supplemented with 10% fetal bovine serum and 2 mM L-glutamine. Stock solutions of TFMFDG and TFFDG in phosphate buffered saline (PBS) are added to the cell culture medium to obtain a final dye concentration of 1 μM. The cells are incubated at 37° C. for 30 minutes, put on ice and assayed immediately by flow cytometry using a FACS-Vantage instrument equipped with an argon-ion laser (488 nm excitation). Fluorescence emission is collected using a 515 nm long-pass filter and a single photomultiplier tube.

[8] = target: prostatic acid phosphatase (Homo sapiens, UniProt P15309); test: Detection of acid phosphatase activity; type: biochemical; settings: 10 μM substrate, 0.1 units enzyme, pH 5, excitation 490 nm, emission 515 nm
Experimental: The rate of fluorescent product generation is measured by exciting a solution of 10 μM DFFDP or fluorescein diphosphate (FDP) at 490 nm while monitoring the emission at 515 nm in a fluorometer in the presence of 0.1 units of prostatic acid phosphatase at pH 5. Under these conditions, acid phosphatase produces about a 6.5 times greater change in signal using DFFP than FDP.

[9] = Ca2+ binding affinity of BAPTA conjugate (Calcium Calibration Buffer Kit II)
Experimental: The fluorescence response and dissociation constant of the fluorescent BAPTA conjugates are determined using the Calcium Calibration Buffer Kit II (Molecular Probes, Inc.; Eugene Oreg.), which is based on a method described by Tsien et al. METH. ENZYM. 172, 230 (1989). For example, 1 mg of Compound 103 is dissolved in deionized water and 5 μL is diluted into 3 mL of each of two buffers, which are cross diluted to arrive at a series of Ca^2+ concentrations between zero and 35 μM. Emission spectra of the dye solutions are scanned between dilutions to generate a family of curves. Each of these curves has maximal fluorescence emission at approximately 530 nm with an increase in fluorescence emission intensity with increasing Ca^2+ concentration. This intensity change is plotted against the concentration of free Ca^2+ to give a value for the dissociation constant of the indicator. […] The calculated dissociation constant at 20° C. is 169 nM.

Chain of Escherichia coli β-galactosidase (P00722 2-1024): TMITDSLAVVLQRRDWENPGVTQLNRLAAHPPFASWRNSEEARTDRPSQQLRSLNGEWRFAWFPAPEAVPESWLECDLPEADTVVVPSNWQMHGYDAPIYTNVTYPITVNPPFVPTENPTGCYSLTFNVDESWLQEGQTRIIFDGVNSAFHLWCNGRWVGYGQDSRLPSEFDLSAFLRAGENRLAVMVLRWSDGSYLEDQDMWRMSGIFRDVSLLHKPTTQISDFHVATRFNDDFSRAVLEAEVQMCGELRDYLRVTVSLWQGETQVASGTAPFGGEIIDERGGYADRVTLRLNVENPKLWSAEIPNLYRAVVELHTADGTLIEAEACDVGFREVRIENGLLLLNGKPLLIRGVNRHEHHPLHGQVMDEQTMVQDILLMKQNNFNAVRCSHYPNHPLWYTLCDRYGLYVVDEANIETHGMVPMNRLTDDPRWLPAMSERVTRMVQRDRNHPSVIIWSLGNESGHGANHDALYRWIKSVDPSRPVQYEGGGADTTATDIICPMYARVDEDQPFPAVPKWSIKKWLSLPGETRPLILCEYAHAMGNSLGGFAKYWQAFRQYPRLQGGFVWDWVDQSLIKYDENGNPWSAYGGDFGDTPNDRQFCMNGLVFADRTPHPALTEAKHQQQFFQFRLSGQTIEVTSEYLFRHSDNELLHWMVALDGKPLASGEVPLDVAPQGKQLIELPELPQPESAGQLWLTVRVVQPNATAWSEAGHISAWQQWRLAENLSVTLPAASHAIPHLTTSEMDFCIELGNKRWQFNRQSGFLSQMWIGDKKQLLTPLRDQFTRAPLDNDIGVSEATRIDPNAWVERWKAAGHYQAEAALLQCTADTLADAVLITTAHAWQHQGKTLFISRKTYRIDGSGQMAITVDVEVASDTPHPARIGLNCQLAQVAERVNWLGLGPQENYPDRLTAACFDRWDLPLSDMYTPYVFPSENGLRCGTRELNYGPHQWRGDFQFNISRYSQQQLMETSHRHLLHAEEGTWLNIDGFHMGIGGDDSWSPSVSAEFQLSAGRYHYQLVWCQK
Chain of prostatic acid phosphatase (P15309 33-386): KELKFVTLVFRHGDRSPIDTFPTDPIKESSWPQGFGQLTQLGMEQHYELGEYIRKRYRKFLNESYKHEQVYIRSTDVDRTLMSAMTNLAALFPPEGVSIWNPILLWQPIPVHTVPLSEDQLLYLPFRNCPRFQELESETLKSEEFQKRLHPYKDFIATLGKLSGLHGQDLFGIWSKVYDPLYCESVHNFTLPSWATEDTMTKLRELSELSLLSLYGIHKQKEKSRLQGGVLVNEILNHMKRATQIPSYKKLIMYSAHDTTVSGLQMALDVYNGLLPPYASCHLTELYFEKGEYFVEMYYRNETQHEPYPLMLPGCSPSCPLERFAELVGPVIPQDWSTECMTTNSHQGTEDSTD

Fluorescence Emission [7]	Compound	fluorescence of stained cells [1]	Mean Fluorescence intensity of labeled cells ([2]; 100 μM verapamil)	Mean Fluorescence intensity of labeled cells ([2]; 1 mM Probenecid)	Mean Fluorescence intensity of labeled cells ([2]; No drug)	other results
	CC(=O)Oc1c(F)cc2c(c1F)Oc1c(cc(F)c(OC(C)=O)c1F)C21OC(=O)c2ccccc21 [2',4',5',7'-TFFDA, 2',4',5',7'-tetrafluorofluorescein diacetate]	weakly fluorescent	14.0	12.8	2.9	
	CC(=O)Oc1ccc2c(c1)Oc1cc(OC(C)=O)ccc1C21OC(=O)c2c(F)c(F)c(F)c(F)c21 [Compound 25, 4,5,6,7-tetrafluorofluorescein Diacetate]	significantly higher fluorescence	1892	2521	732	protein labeling (degree of substitution) [3]: 8.6
	CC(=O)Oc1cc2c(cc1F)C1(OC(=O)c3c(F)c(F)c(F)c(F)c31)c1cc(F)c(OC(C)=O)cc1O2 [Compound 27, 2',4,5,6,7,7'-hexafluorofluorescein Diacetate]	significantly higher fluorescence	212	172	26.9	
	O=C1OC2(c3ccc(O)cc3Oc3cc(O)ccc32)c2c(F)c(F)c(F)c(F)c21 [Compound 34, 4,5,6,7-tetrafluorofluorescein]					photodecomposition [4]: 6.6%; protein labeling (degree of substitution) [3]: minimal protein labeling; pKa [5]: 6.1; Abs. ([6]; absorption maximum): 508 nm; Em. ([6]; emission maximum): 527 nm; ε × 10^-3 ([6]; extinction coefficient, value is ε × 10^-3): 85.6 cm^-1 M^-1; Quantum Yield ([6]; fluorescence quantum yield): 0.85
4.1	O=C1OC2(c3ccc(O[C@@H]4O[C@H](CO)[C@H](O)[C@H](O)[C@H]4O)cc3Oc3cc(O[C@@H]4O[C@H](CO)[C@H](O)[C@H](O)[C@H]4O)ccc32)c2c(F)c(F)c(F)c(F)c21 [Compound 95, 4,5,6,7-tetrafluorofluorescein, bis-O-galactoside]					fluorescence signal relative to FDG [7]: 4.1 times
	O=C1OC2(c3cc(F)c(OP(=O)(O)O)cc3Oc3cc(OP(=O)(O)O)c(F)cc32)c2ccccc21 [Compound 96, 2',7'-fluorofluorescein Diphosphate, Tetraammonium Salt]					change in signal relative to FDP [8]: ~6.5 times
	O=C(O)CN(CC(=O)O)c1ccccc1OCCOc1cc(NC(=O)c2ccc3c(c2)C(=O)OC32c3cc(F)c(O)cc3Oc3cc(O)c(F)cc32)ccc1N(CC(=O)O)CC(=O)O [Compound 103]					fluorescence emission intensity increase ([9]; Ca^2+ from zero to 35 μM, emission approximately 530 nm): approximately 17 fold; Kd ([9]; Ca^2+, 20° C., read-out: dissociation constant): 169 nM
1.0	O=C1OC2(c3ccc(O[C@@H]4O[C@H](CO)[C@H](O)[C@H](O)[C@H]4O)cc3Oc3cc(O[C@@H]4O[C@H](CO)[C@H](O)[C@H](O)[C@H]4O)ccc32)c2ccccc21 [FDG, fluorescein digalactoside, reference compound]					
48.1	COc1c(F)c(F)c2c(c1F)C1(OC2=O)c2ccc(O[C@@H]3O[C@H](CO)[C@H](O)[C@H](O)[C@H]3O)cc2Oc2cc(O[C@@H]3O[C@H](CO)[C@H](O)[C@H](O)[C@H]3O)ccc21 [TFMFDG, 4,5,7-trifluoro-6-methoxyfluorescein Digalactoside]					fluorescence signal relative to FDG [7]: 48.1 times

Source: patent US6229055A, “Synthesis of fluorinated xanthene derivatives” (Molecular Probes, Inc., priority 2000, dated 2001)
